Assay results from patent US20050004211A1, “Pharmaceutical compositions comprising aryl-substituted acyclic enediyne compounds” (KAOHSIUNG MEDICAL UNIVERSITY, priority 2003, published 2005).
Marks after values point to notes of the source that are not given here.

Tests used:
OVCAR-3 = test: NCI full panel screen; details: Homo sapiens; for GI50: OVCAR-3, read-out: GI50 OVCAR-3; for CC50: OVCAR-3, read-out: LC50 OVCAR-3
SR = test: NCI full panel screen; details: Table 4; for CC50: read-out: LC50 SR; for GI50: read-out: GI50 SR
Leukemia cell lines = test: NCI full panel screen, panel average; details: Homo sapiens, read-out: cytotoxicity, average of all Leukemia cell lines
CAKI-1 = details: Table 4; for GI50: read-out: GI50 CAKI-1; for CC50: read-out: LC50 CAKI-1
Breast cancer cell MCF-7 = test: Preliminary cytotoxicity test; format: cell-based, human
DU-145 = test: NCI full panel screen; details: Table 4; for CC50: read-out: LC50 DU-145; for GI50: read-out: GI50 DU-145
UACC-82 = details: read-out: GI50 UACC-82; Table 4
Breast Cancer cell lines = test: NCI full panel screen, panel average; details: Homo sapiens, read-out: cytotoxicity, average of all Breast Cancer cell lines
[1] = test system: Non-small cell Lung cancer cell NCI-H460; test: Preliminary cytotoxicity test; format: cell-based, human
NCI-H522 = details: Table 4; for CC50: read-out: LC50 NCI-H522; for GI50: read-out: GI50 NCI-H522
SF-295 = details: Table 4; for GI50: read-out: GI50 SF-295; for CC50: read-out: LC50 SF-295
Renal Cancer cell lines = test: NCI full panel screen, panel average; details: Homo sapiens, read-out: cytotoxicity, average of all Renal Cancer cell lines
[2] = test system: Prostate Cancer cell lines; test: NCI full panel screen, panel average; details: Homo sapiens, read-out: cytotoxicity, average of all Prostate Cancer cell lines
[3] = test system: Ovarian Cancer cell lines; test: NCI full panel screen, panel average; details: Homo sapiens, read-out: cytotoxicity, average of all Ovarian Cancer cell lines
SK-MEL-5 = details: Table 4; for GI50: read-out: GI50 SK-MEL-5; for CC50: read-out: LC50 SK-MEL-5
[4] = test system: Non-Small Cell Lung Cancer cell lines; test: NCI full panel screen, panel average; details: Homo sapiens, read-out: cytotoxicity, average of all Non-Small Cell Lung Cancer cell lines
U251 = details: Table 4; for CC50: read-out: LC50 U251; for GI50: read-out: GI50 U251
NCI-H23 = details: read-out: GI50 NCI-H23; Table 4
IGROV1 = details: Table 4; for GI50: read-out: GI50 IGROV1; for CC50: read-out: LC50 IGROV1
CNS Cancer cell lines = test: NCI full panel screen, panel average; details: Homo sapiens, read-out: cytotoxicity, average of all CNS Cancer cell lines
NCI/ADR-RES = details: Table 4; for GI50: read-out: GI50 NCI/ADR-RES; for CC50: read-out: LC50 NCI/ADR-RES
SN12C = details: read-out: GI50 SN12C; Table 4
CNS cancer cell SF-268 = test: Preliminary cytotoxicity test; format: cell-based, human
PC-3 = details: read-out: GI50 PC-3; Table 4
Colon Cancer cell lines = test: NCI full panel screen, panel average; details: Homo sapiens, read-out: cytotoxicity, average of all Colon Cancer cell lines
KM12 = details: Table 4; for CC50: read-out: LC50 KM12
SW-620 = details: Table 4; for GI50: read-out: GI50 SW-620; for CC50: read-out: LC50 SW-620
Melanoma cell lines = test: NCI full panel screen, panel average; details: Homo sapiens, read-out: cytotoxicity, average of all Melanoma cell lines
K-562 = details: Table 4; for CC50: read-out: LC50 K-562; for GI50: read-out: GI50 K-562
MDA-MB-435 = details: read-out: GI50 MDA-MB-435; Table 4

## N#Cc1ccccc1C#CC=CC#Cc1ccccn1 [Compound 27, 2-(6-(2-pyridinyl)-3-hexen-1,5-diynyl)benzonitrile]
OVCAR-3
  GI50: 4.26 µM
  CC50: 56.9 µM
SR
  CC50: > 100 µM
Leukemia cell lines
  IC50: 12.8 µM
CAKI-1
  GI50: 21.8 µM
  CC50: > 100 µM
Breast cancer cell MCF-7
  Growth percentage, Breast cancer cell MCF-7: 49%
DU-145
  CC50: > 100 µM
UACC-82
  GI50: 15.3 µM
Breast Cancer cell lines
  IC50: 14.3 µM
[1]
  Growth percentage, Non-small cell Lung cancer cell NCI-H460: 23* %
NCI-H522
  CC50: 84.7 µM
SF-295
  GI50: 20.1 µM
  CC50: > 100 µM
Renal Cancer cell lines
  IC50: 21.7 µM
[2]
  IC50: 21.2 µM
[3]
  IC50: 27.3 µM
SK-MEL-5
  GI50: 2.99 µM
  CC50: 41.6 µM
[4]
  IC50: 19.6 µM
U251
  CC50: 79 µM
NCI-H23
  GI50: 12.3 µM
IGROV1
  GI50: 17 µM
  CC50: 79.1 µM
CNS Cancer cell lines
  IC50: 20.9 µM
NCI/ADR-RES
  GI50: 16.5 µM
  CC50: 71 µM
SN12C
  GI50: 20.4 µM
CNS cancer cell SF-268
  Growth percentage, CNS cancer cell SF-268: 83%
PC-3
  GI50: 13.7 µM
Colon Cancer cell lines
  IC50: 16.3 µM
KM12
  CC50: 80.4 µM
SW-620
  GI50: 12.6 µM
  CC50: 80.5 µM
Melanoma cell lines
  IC50: 14.2 µM
K-562
  CC50: > 100 µM

## N#Cc1ccccc1C#CC=CC#Cc1cnccn1 [Compound 30, 2-(6-(2-pyrazinyl)-3-hexen-1,5-diynyl)benzonitrile]
OVCAR-3
  GI50: 16.6 µM
  CC50: > 100 µM
SR
  GI50: 4.3 µM
  CC50: > 100 µM
Leukemia cell lines
  IC50: 5.05 µM
CAKI-1
  GI50: 21.6 µM
  CC50: > 100 µM
Breast cancer cell MCF-7
  Growth percentage, Breast cancer cell MCF-7: 73%
DU-145
  GI50: 36.3 µM
  CC50: > 100 µM
Breast Cancer cell lines
  IC50: 33.3 µM
MDA-MB-435
  GI50: 5.3 µM
[1]
  Growth percentage, Non-small cell Lung cancer cell NCI-H460: 8* %
NCI-H522
  GI50: 14.8 µM
  CC50: > 100 µM
SF-295
  GI50: 17.6 µM
  CC50: > 100 µM
Renal Cancer cell lines
  IC50: 27 µM
[2]
  IC50: 33.6 µM
[3]
  IC50: 38.1 µM
SK-MEL-5
  GI50: 19.6 µM
  CC50: > 100 µM
[4]
  IC50: 11.8 µM
U251
  GI50: 36.1 µM
  CC50: > 100 µM
NCI-H23
  GI50: 15.9 µM
IGROV1
  GI50: 46.2 µM
  CC50: > 100 µM
CNS Cancer cell lines
  IC50: 32.2 µM
NCI/ADR-RES
  GI50: 15.9 µM
  CC50: > 100 µM
SN12C
  GI50: 22.6 µM
CNS cancer cell SF-268
  Growth percentage, CNS cancer cell SF-268: 84%
PC-3
  GI50: 30.9 µM
Colon Cancer cell lines
  IC50: 7.54 µM
KM12; read-out: GI50 KM12
  GI50: 4.39 µM
KM12
  CC50: > 100 µM
SW-620
  GI50: 6.98 µM
  CC50: > 100 µM
Melanoma cell lines
  IC50: 18.7 µM
K-562
  GI50: 4.88 µM
  CC50: > 100 µM

## N#Cc1ccccc1C#CC=CC#Cc1ccccc1N [Compound 32, 2-[6-(o-anilinyl)-3-hexen-1,5-diynyl]benzonitrile]
OVCAR-3
  GI50: 0.17 µM
  CC50: 98.4 µM
SR
  GI50: 0.25 µM
  CC50: > 100 µM
Leukemia cell lines
  IC50: 0.43 µM
CAKI-1
  GI50: 0.13 µM
  CC50: 35.9 µM
Breast cancer cell MCF-7
  Growth percentage, Breast cancer cell MCF-7: 36%
DU-145
  GI50: 3.48 µM
  CC50: > 100 µM
UACC-82
  GI50: 0.37 µM
Breast Cancer cell lines
  IC50: 2 µM
MDA-MB-435
  GI50: 0.11 µM
[1]
  Growth percentage, Non-small cell Lung cancer cell NCI-H460: 8* %
NCI-H522
  GI50: 0.3 µM
  CC50: 8.62 µM
SF-295
  GI50: 0.24 µM
  CC50: 12.4 µM
Renal Cancer cell lines
  IC50: 0.66 µM
[2]
  IC50: 3.13 µM
[3]
  IC50: 1.55 µM
SK-MEL-5
  GI50: 0.44 µM
  CC50: 33.1 µM
[4]
  IC50: 1.7 µM
U251
  GI50: 0.43 µM
  CC50: > 100 µM
NCI-H23
  GI50: 0.8 µM
IGROV1
  GI50: 0.27 µM
  CC50: > 100 µM
CNS Cancer cell lines
  IC50: 9.44 µM
NCI/ADR-RES
  GI50: 0.37 µM
  CC50: > 100 µM
SN12C
  GI50: 0.41 µM
CNS cancer cell SF-268
  Growth percentage, CNS cancer cell SF-268: 27* %
PC-3
  GI50: 2.78 µM
Colon Cancer cell lines
  IC50: 0.47 µM
KM12
  CC50: > 100 µM
SW-620
  GI50: 0.39 µM
  CC50: > 100 µM
Melanoma cell lines
  IC50: 0.77 µM
K-562
  GI50: 0.48 µM
  CC50: > 100 µM
